PMC3382171 (PLoS ONE, 2012)

Assays:
Test in all cases: biochemical
[1] = biological target: rat DYRK1A (Rattus norvegicus, UniProt Q63470); details: read-out: Dundee KSS % inhibition at 1uM
Experimental: (§1) The METi and RAFi were screened against kinase panels (SelectScreen, Invitrogen; University of Dundee, Division of Signal Transduction Therapy, UK; Upstate Biotechnology/Millipore, Billerica, MA). In these selectivity assays the concentration of ATP was set to the Km value of ATP for each kinase tested to allow for a relative potency comparison between the various kinases. The compounds were tested at 1 µM final concentration. […] (A) Kinase selectivity screen (KSS) performed at Upstate Biotechnology. […] (B) KSS performed at University of Dundee (Division of Signal Transduction Therapy). […] (PDF) Click here for additional data file.

[2] = biological target: T1, CAMKKa (Homo sapiens, UniProt Q8N5S9); details: read-out: Dundee KSS % inhibition at 1uM
T1 construct: gene CAMKK1
Experimental: as §1

[3] = biological target: CDK2/CyclinA (Homo sapiens, UniProt P24941); details: read-out: Dundee KSS % inhibition at 1uM
Experimental: as §1

[4] = biological target: T2, MLCK (Homo sapiens, UniProt Q15746); details: read-out: Dundee KSS % inhibition at 1uM
T2 construct: gene MYLK
Experimental: as §1

[5] = biological target: NEK6 (Homo sapiens, UniProt Q9HC98); details: read-out: Dundee KSS % inhibition at 1uM
Experimental: as §1

[6] = biological target: T3, PRK2 (Homo sapiens, UniProt Q16513); details: read-out: Dundee KSS % inhibition at 1uM
T3 construct: gene PKN2
Experimental: as §1

[7] = biological target: T4, ERK8 (Homo sapiens, UniProt Q8TD08); details: read-out: Dundee KSS % inhibition at 1uM
T4 construct: gene MAPK15
Experimental: as §1

[8] = biological target: T5, AuroraC (Homo sapiens, UniProt Q9UQB9); details: read-out: Dundee KSS % inhibition at 1uM
T5 construct: gene AURKC
Experimental: as §1

[9] = biological target: T6, MST2 (Homo sapiens, UniProt Q13188); details: read-out: Dundee KSS % inhibition at 1uM
T6 construct: gene STK3
Experimental: as §1

[10] = biological target: T7, MNK1 (Homo sapiens, UniProt Q9BUB5); details: read-out: Dundee KSS % inhibition at 1uM
T7 construct: gene MKNK1
Experimental: as §1

[11] = biological target: chicken SRC (Gallus gallus, UniProt P00523); details: read-out: Dundee KSS % inhibition at 1uM
Experimental: as §1

[12] = biological target: PIM1 (Homo sapiens, UniProt P11309); details: read-out: Dundee KSS % inhibition at 1uM
Experimental: as §1

[13] = biological target: T8, PRAK (Homo sapiens, UniProt Q8IW41); details: read-out: Dundee KSS % inhibition at 1uM
T8 construct: gene MAPKAPK5
Experimental: as §1

[14] = biological target: T9, deltaPH-PKBalpha (Homo sapiens, UniProt P31749); details: read-out: Dundee KSS % inhibition at 1uM
T9 construct: gene AKT1; delta PH
Experimental: as §1

[15] = biological target: T10, rat ROCKII (Rattus norvegicus, UniProt Q62868); details: read-out: Dundee KSS % inhibition at 1uM
T10 construct: gene Rock2
Experimental: as §1

[16] = biological target: CSK (Homo sapiens, UniProt P41240); details: read-out: Dundee KSS % inhibition at 1uM
Experimental: as §1

[17] = biological target: MAPK1/ERK2 (Homo sapiens, UniProt P28482); details: read-out: Dundee KSS % inhibition at 1uM
Experimental: as §1

[18] = biological target: T11, AuroraB (Homo sapiens, UniProt Q96GD4); details: read-out: Dundee KSS % inhibition at 1uM
T11 construct: gene AURKB
Experimental: as §1

[19] = biological target: T12, CAMK-1 (Homo sapiens, UniProt Q14012); details: read-out: Dundee KSS % inhibition at 1uM
T12 construct: gene CAMK1
Experimental: as §1

[20] = biological target: T13, MAPKAP-K1b (Homo sapiens, UniProt P51812); details: read-out: Dundee KSS % inhibition at 1uM
T13 construct: gene RPS6KA3
Experimental: as §1

[21] = biological target: MARK3 (Homo sapiens, UniProt P27448); details: read-out: Dundee KSS % inhibition at 1uM
Experimental: as §1

[22] = biological target: T14, MSK1 (Homo sapiens, UniProt O75582); details: read-out: Dundee KSS % inhibition at 1uM
T14 construct: gene RPS6KA5
Experimental: as §1

[23] = biological target: SRPK1 (Homo sapiens, UniProt Q96SB4); details: read-out: Dundee KSS % inhibition at 1uM
Experimental: as §1

[24] = biological target: T15, deltaPH-PKBbeta (Homo sapiens, UniProt P31751); details: read-out: Dundee KSS % inhibition at 1uM
T15 construct: gene AKT2; delta PH
Experimental: as §1

[25] = biological target: T16, PKCalpha (Homo sapiens, UniProt P17252); details: read-out: Dundee KSS % inhibition at 1uM
T16 construct: gene PRKCA
Experimental: as §1

[26] = biological target: T17, NEK2a (Homo sapiens, UniProt P51955); details: read-out: Dundee KSS % inhibition at 1uM
T17 construct: gene NEK2; isoform A
Experimental: as §1

[27] = biological target: T18, JNK/SAPK1c (Homo sapiens, UniProt P45983); details: read-out: Dundee KSS % inhibition at 1uM
T18 construct: gene MAPK8
Experimental: as §1

[28] = biological target: ZAP70 (Homo sapiens, UniProt P43403); design: gene ZAP70; details: read-out: Upstate KSS % inhibition at 1uM
Experimental: as §1, with “In” for “The METi and RAFi were screened against kinase panels (SelectScreen, Invitrogen; University of Dundee, Division of Signal Transduction Therapy, UK; Upstate Biotechnology/Millipore, Billerica, MA). In”

T4 sequence (Q8TD08 whole entry): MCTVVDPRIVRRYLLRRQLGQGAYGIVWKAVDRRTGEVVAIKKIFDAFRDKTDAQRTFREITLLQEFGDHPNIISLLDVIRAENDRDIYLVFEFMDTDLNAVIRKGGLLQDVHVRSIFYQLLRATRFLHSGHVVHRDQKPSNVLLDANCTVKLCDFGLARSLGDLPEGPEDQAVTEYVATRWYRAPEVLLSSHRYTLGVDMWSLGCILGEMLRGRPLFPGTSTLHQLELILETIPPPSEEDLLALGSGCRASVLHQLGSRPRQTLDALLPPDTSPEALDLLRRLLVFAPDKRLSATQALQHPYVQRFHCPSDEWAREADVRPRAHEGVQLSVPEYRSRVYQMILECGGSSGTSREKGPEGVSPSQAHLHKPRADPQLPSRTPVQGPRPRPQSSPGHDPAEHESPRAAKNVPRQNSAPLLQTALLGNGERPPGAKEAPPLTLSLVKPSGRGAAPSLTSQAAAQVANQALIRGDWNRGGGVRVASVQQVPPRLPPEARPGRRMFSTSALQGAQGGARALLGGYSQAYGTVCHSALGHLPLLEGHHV
T12 sequence (Q14012 whole entry): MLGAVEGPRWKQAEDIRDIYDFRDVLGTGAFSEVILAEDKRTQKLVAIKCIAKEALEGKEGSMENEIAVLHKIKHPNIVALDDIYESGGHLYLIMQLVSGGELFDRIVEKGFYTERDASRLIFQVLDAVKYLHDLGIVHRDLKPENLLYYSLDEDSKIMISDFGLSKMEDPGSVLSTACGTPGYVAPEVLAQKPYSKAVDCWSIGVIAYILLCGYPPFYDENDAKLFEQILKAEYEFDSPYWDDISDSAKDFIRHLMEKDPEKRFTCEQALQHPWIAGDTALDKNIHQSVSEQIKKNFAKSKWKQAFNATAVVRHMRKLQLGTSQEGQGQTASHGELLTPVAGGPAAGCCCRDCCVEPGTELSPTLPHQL
Sequence of SRPK1 (Q96SB4 whole entry): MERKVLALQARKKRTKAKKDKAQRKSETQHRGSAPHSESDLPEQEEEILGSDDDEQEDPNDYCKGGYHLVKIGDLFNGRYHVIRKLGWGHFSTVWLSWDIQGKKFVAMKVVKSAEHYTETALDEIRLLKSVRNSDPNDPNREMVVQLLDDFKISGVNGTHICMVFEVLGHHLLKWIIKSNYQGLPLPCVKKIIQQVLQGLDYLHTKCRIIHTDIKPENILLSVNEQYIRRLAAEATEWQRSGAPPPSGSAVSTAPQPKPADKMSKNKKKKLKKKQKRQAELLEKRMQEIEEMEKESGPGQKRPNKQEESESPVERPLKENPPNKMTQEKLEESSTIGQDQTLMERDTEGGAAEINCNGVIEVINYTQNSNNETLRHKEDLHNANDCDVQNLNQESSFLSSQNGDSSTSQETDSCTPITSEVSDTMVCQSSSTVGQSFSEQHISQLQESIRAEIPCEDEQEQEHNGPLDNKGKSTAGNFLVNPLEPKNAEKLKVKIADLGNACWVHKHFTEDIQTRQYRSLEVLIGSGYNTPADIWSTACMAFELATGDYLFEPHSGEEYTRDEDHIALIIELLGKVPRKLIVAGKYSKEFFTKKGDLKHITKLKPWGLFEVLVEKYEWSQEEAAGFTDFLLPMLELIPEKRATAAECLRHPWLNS
T6 sequence (Q13188 whole entry): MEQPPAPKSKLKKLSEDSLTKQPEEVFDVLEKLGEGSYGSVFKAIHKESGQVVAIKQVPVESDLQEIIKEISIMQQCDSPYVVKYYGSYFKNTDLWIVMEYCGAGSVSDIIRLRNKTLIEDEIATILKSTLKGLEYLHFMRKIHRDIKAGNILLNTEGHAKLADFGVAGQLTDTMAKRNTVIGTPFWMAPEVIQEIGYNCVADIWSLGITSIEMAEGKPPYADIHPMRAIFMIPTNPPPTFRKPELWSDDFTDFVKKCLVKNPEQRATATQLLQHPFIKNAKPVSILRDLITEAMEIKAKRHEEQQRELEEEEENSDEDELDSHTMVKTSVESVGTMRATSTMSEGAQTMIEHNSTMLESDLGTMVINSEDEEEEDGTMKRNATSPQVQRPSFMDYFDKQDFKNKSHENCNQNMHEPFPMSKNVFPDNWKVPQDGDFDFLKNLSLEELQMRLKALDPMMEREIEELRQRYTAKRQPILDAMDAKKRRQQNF
T10 sequence (Q62868 whole entry): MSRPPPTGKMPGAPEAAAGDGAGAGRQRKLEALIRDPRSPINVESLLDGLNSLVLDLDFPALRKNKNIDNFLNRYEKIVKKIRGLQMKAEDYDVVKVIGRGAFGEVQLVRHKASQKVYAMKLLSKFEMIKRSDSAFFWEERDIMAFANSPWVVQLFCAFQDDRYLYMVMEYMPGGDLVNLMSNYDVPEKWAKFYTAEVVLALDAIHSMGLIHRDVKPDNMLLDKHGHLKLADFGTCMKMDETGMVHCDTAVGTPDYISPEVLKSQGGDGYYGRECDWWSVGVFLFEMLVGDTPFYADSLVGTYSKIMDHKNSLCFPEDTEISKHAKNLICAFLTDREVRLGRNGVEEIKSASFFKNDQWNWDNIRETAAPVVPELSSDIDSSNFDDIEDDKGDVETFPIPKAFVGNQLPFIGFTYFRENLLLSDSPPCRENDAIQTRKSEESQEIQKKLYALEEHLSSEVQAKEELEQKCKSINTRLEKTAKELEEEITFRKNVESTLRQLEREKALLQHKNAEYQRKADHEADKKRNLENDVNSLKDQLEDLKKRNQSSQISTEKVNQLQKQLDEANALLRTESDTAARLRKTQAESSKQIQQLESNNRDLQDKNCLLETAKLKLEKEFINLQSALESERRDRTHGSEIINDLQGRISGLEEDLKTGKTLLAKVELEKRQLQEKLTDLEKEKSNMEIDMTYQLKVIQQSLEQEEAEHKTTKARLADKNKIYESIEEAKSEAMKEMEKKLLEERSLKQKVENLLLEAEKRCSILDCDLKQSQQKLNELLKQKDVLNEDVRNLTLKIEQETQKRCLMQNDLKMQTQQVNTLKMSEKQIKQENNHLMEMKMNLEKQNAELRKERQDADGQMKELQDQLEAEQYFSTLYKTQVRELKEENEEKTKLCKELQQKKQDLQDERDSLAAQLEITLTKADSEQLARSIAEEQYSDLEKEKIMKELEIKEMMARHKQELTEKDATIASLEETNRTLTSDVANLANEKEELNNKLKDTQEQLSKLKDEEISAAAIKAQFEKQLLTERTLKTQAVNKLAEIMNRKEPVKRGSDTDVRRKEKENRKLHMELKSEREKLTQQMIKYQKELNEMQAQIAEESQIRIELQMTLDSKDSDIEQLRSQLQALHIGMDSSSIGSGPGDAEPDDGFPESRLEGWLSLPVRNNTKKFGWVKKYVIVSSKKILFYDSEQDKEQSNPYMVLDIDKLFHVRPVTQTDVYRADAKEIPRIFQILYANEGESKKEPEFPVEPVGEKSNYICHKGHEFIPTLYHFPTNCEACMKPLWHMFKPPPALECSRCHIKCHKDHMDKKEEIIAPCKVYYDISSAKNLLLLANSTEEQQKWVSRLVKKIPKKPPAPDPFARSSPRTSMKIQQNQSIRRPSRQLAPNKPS
T5 sequence (Q9UQB9 whole entry): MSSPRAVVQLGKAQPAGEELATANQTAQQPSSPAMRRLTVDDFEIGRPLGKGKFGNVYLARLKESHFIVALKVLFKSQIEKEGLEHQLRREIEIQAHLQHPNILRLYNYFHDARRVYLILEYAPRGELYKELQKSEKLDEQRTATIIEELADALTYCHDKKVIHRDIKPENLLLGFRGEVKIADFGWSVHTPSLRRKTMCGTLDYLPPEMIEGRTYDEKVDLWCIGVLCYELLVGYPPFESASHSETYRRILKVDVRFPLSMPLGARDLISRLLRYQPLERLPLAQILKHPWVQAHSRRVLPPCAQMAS
T14 sequence (O75582 whole entry): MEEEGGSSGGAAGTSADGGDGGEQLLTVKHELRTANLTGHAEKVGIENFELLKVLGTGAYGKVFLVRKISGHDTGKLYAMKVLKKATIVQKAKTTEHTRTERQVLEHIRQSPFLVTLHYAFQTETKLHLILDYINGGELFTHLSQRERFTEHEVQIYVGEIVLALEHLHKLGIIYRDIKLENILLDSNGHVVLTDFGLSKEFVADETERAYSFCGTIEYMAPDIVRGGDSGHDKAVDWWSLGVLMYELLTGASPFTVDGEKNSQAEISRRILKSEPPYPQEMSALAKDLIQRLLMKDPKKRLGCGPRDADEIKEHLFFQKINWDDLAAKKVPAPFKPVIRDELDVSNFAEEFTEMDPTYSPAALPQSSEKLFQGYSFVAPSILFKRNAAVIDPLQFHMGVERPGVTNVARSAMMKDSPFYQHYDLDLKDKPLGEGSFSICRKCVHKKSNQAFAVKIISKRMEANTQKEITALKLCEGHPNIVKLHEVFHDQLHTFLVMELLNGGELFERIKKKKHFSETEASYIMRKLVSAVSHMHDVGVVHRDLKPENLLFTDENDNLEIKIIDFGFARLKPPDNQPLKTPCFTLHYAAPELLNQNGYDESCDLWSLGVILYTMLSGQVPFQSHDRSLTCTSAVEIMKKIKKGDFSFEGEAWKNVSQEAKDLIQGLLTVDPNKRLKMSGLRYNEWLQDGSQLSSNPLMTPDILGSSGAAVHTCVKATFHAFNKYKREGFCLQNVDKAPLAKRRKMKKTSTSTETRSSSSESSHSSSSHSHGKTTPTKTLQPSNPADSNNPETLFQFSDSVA
T15 sequence (P31751 whole entry): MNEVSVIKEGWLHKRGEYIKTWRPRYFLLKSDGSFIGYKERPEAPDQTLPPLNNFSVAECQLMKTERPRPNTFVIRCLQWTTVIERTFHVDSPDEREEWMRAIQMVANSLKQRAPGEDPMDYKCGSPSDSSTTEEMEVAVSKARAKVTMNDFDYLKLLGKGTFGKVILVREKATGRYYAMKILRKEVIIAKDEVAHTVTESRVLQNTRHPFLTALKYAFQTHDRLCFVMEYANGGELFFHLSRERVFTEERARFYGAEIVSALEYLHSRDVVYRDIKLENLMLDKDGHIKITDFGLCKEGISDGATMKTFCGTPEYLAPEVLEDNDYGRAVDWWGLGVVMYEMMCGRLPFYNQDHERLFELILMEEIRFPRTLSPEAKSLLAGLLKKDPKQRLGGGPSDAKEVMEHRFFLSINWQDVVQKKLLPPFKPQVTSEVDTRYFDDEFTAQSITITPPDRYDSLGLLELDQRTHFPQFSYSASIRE

- inhibition at 1 µM [1]: 2.39%
- inhibition at 1 µM [2]: 8.9%
- inhibition at 1 µM [3]: 2.24%
- inhibition at 1 µM [4]: 9.24%
- inhibition at 1 µM [5]: 8.99%
- inhibition at 1 µM [6]: 11.7%
- inhibition at 1 µM [8]: 6.48%
- inhibition at 1 µM [9]: 6.16%
- inhibition at 1 µM [10]: -8.48%
- inhibition at 1 µM [11]: -11.5%
- inhibition at 1 µM [12]: 4.46%
- inhibition at 1 µM [13]: 4.01%
- inhibition at 1 µM [14]: 3.5%
- inhibition at 1 µM [15]: 12.8%
- inhibition at 1 µM [16]: 5.77%
- inhibition at 1 µM [17]: -13%
- inhibition at 1 µM [18]: 11.2%
- inhibition at 1 µM [19]: 12.8%
- inhibition at 1 µM [20]: 24.9%
- inhibition at 1 µM [21]: 4.4%
- inhibition at 1 µM [22]: 5.55%
- inhibition at 1 µM [23]: 13.5%
- inhibition at 1 µM [24]: 8.16%
- inhibition at 1 µM [25]: 14.3%
- inhibition at 1 µM [26]: -7.91%
- inhibition at 1 µM [27]: 4.04%
- inhibition at 1 µM [28]: 3%
SMILES: OCCn1cc(-c2cnc3nnn(Cc4ccc5ncccc5c4)c3n2)cn1 [METi, PF-04217903]
- inhibition at 1 µM [7]: 14.8%
